The results in this text go back to ChEMBL document CHEMBL1201862, “PubChem BioAssay data set” (2004).

“And” between values parts separate entries of the source, which are not always exact repeats. Identical values can stand only once. The source made the active and inactive calls.

Series [1] has as its target T1, Replicative DNA helicase DnaB (Mycobacterium tuberculosis, UniProt P9WMR3).
T1 sequence (P9WMR3 whole entry): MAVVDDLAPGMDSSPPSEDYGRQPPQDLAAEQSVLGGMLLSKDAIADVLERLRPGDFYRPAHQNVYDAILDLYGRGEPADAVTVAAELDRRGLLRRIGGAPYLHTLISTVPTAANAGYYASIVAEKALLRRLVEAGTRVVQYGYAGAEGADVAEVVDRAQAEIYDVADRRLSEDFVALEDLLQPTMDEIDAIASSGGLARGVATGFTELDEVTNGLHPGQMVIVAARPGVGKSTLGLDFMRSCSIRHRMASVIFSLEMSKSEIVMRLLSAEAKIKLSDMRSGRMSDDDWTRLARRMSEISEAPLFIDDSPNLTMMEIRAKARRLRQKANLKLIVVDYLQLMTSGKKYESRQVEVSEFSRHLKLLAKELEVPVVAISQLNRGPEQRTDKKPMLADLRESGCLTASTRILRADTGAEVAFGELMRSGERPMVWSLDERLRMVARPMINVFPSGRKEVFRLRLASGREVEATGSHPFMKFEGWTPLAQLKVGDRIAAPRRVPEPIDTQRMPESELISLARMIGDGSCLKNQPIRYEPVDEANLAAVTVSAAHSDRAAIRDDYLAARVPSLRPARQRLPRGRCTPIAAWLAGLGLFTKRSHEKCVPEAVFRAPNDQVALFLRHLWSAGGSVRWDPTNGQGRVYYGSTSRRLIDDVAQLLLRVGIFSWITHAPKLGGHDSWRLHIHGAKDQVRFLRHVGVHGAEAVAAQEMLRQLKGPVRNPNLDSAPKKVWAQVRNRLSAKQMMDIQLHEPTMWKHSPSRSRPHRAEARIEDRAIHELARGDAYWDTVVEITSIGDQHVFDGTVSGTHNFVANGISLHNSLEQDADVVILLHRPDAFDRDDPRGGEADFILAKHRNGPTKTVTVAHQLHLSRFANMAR
The series can be described thus: DnaB intein splicing inhibitors, dose response, biochemical, cell-free fluorescence (AID 449749). Type of series: functional.

In series [2] the target is T2, Protein RecA (Mycobacterium tuberculosis, UniProt P9WHJ3).
T2 sequence (P9WHJ3 whole entry): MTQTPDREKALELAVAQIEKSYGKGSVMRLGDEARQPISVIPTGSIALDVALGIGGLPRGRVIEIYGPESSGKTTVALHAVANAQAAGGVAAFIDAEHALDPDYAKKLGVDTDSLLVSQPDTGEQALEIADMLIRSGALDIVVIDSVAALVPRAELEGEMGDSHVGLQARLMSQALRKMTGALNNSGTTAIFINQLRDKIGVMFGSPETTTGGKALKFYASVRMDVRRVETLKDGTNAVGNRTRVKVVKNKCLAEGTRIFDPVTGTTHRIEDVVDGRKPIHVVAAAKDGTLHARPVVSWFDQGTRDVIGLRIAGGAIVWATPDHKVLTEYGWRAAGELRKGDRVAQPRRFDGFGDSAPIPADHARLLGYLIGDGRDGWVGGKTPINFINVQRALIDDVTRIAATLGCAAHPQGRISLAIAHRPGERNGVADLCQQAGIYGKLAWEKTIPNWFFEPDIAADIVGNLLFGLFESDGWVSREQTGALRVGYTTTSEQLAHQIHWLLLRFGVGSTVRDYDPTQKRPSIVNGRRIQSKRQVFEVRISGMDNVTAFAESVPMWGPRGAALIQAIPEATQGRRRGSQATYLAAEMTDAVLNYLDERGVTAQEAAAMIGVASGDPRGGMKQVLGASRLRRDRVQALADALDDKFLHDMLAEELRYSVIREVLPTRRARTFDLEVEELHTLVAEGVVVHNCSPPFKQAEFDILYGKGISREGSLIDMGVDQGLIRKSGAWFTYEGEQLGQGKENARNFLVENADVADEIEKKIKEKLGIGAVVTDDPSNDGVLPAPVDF
The series can be described thus: Fluorescence Cell-Free Homogeneous Dose Retest to Identify Inhibitors of RecA-Intein Splicing Activity. [Related pubchem assays (depositor defined):AID2097, AID2223, AID489010, AID492950]. The class given is functional.

The target in series [3] is T3, Cytochrome P450 1A2 (Homo sapiens, UniProt P05177).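 Note: PubChem cytochrome P450 panel assay, CYP1A2 panel member.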
T3 sequence (P05177 whole entry): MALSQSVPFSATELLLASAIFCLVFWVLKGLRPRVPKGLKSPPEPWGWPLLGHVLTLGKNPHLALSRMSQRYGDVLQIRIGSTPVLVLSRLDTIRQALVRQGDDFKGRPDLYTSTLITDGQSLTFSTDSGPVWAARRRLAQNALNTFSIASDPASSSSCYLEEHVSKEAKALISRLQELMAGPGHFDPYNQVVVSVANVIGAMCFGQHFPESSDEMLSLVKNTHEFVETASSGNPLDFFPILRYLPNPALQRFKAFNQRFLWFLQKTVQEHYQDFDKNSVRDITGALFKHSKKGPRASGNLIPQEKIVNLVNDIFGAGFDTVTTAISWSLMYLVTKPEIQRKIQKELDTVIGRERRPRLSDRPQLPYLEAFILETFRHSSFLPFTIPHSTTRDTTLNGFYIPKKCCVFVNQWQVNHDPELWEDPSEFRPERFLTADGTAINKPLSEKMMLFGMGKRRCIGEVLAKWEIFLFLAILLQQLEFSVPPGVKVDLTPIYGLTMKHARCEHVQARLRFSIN

Series [4] has as its system Streptococcus sp. 'group A'. The series can be described thus: Streptococcus pyogenes SK(-)GAS viability under kanamycin – luminescence, BacTiterGlo, confirmation, counter-screen for streptokinase expression inhibitor project, dose response (AID 1900). Type of series: functional, organism-based. In general terms: A counterscreen serves to expose hits that act by an unwanted route or on another target.

For series [5], the system named is Streptococcus. The series can be described thus: GAS UMAA2166 growth inhibition – luminescence, BacTiterGlo, counter-screen for streptokinase expression inhibitor project, dose response (AID 1915).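 Note: potency for reduction of bacterial viability or growth.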 Type of series: functional, organism-based.
The target of series [6] is Cytochrome P450 2C19 (Homo sapiens, UniProt P33261). The series can be described thus: Cytochrome panel assay with activity outcomes. Panel member name: p450-cyp2c19 Compounds with AC50 equal or less than 10 uM are considered active. The class given is functional.
Cytochrome P450 2C19, sequence (P33261 whole entry): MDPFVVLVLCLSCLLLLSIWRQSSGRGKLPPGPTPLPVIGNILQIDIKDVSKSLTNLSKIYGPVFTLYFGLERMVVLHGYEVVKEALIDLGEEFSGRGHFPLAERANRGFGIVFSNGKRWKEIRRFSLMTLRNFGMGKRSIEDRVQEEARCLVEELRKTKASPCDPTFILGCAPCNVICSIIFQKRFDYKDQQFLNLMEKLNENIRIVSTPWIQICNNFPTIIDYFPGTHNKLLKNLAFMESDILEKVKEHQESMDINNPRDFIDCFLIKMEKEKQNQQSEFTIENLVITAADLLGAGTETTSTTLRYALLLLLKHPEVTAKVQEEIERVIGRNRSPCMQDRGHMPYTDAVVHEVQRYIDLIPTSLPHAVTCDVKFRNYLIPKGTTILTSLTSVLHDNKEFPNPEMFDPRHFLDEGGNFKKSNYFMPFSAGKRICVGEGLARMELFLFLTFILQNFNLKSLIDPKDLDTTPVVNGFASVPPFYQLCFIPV
For series [7], the target named is Cytochrome P450 3A4 (Homo sapiens, UniProt P08684).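 Note: CYP3A4 tested as one member of a cytochrome P450 panel screen.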
Cytochrome P450 3A4, sequence (P08684 whole entry): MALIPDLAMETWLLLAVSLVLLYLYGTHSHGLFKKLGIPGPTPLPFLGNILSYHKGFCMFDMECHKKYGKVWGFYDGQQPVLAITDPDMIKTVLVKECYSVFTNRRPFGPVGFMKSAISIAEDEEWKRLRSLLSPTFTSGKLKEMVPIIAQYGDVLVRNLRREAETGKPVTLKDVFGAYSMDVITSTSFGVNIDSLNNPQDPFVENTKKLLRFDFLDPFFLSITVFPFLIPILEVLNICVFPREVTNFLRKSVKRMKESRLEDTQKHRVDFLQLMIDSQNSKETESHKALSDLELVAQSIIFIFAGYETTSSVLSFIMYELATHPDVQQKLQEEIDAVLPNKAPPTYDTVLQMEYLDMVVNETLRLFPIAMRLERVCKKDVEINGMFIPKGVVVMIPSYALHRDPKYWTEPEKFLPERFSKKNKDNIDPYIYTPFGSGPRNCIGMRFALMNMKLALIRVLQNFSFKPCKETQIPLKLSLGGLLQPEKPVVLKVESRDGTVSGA

One may read the AC50 as the concentration giving half of the maximal activity seen. A word on the EC50: it is the midpoint of the concentration-response curve. In the case of `Cc1ccc(-c2nc(CN3CCCC(C(=O)N4CCOCC4)C3)c(C)o2)cc1` (centres undefined), in series [1], the AC50 is > 380 µM (inactive). For the same compound, the EC50 in series [2] was > 380 µM (inactive). Consider `Cc1noc(C)c1C(=O)N1CCC[C@@]2(CCN(C(=O)Nc3ccccc3)C2)C1`, for which, in series [3], the AC50 is 39.8 µM (inconclusive). As to `CC(=O)C(Sc1ncnc2c1nnn2-c1ccc(F)cc1)C(=O)N(C)C` (centres undefined), the AC50 in series [1] is 21.8 µM (active). The EC50 in series [2] is 15.7 µM (active). With `CCCc1nc2ccccc2c(=O)n1/N=C/c1c(C)nn(-c2ccc(C)cc2)c1O`, the EC50 was 2.87 µM (active) in series [4] and 9.16 µM (active) in series [5]. In the case of `CC(C)C12CN3CC(C(C)C)(CN(C1)C3c1ccco1)C2=O` (centres undefined), in series [6] (read-out: AC50), the AC50 is 28.2 µM (inconclusive). Turning to `C/C(CC(=O)Nc1ccccn1)=N\NC(=O)c1ccc(C)cc1`, the AC50 in series [1] was 20.4 µM (active). Also, the EC50 in series [2] is 8.84 µM (active). As for `O=C(Cc1cc(O)n[nH]1)N/N=C/c1cccc(Cl)c1Cl`, the AC50 in series [1] is 4.36 µM (active) and 2.36 µM (active). In addition, the concentration giving a half-maximal response (EC50) in series [2] was 1.51 µM (active) and 1.71 µM (active). For `O=c1c(-c2ccc(Cl)cc2)nc2cncnc2n1Cc1ccccc1`, the AC50 in series [7] is 10 µM (inconclusive); in series [6] (read-out: AC50), 25.1 µM (inconclusive). With `COc1ccc(-n2c(=O)cnc3cnc(OC)nc32)cc1`, the AC50 in series [3] is 20 µM (inconclusive). On the same count and under the same terms, the value for `CC(Oc1ccccc1)C(=O)Nc1nc2c(s1)C(=O)CC(C)(C)C2` (centres undefined) was 15.8 µM (inconclusive). In the case of `O=C(C1CC(=O)N(C2CCCC2)C1)N1CCC2(CC1)OCCO2` (centres undefined), the AC50 in series [6] (read-out: AC50) was 39.8 µM (inconclusive). In the case of `COc1ccc(NC(=O)CSc2nc(O)cc(=O)n2-c2ccccc2)cc1`, the EC50 in series [4] was 23.1 µM (active); in series [5], 26.1 µM (active). As for `COc1ccc(-n2c(=O)c(C)nc3cnc(N4CCOCC4)nc32)cc1`, the half-maximal activity concentration (AC50) in series [7] is 31.6 µM (inconclusive). On to `Cc1cc(NC(=O)C2CCCC2)n(-c2nc3ccccc3[nH]2)n1`, for which the half-maximal activity concentration (AC50) in series [6] (read-out: AC50) is 10 µM (inconclusive). Turning to `COCCn1c(=O)c(-c2cc(F)cc(F)c2)nc2cnc(N3CCOCC3)nc21`, the AC50 in series [3] is 12.6 µM (inconclusive). Turning to `Cn1c(-c2ccc3c(c2)OCO3)cc(=O)c2ccccc21` [GRAVEOLINE], in series [6] (read-out: AC50), the concentration at half-maximal activity (AC50) was 2 µM (inconclusive). For `CN(C)c1ncc2nc(-c3cc(F)cc(F)c3)c(=O)n(C[C@H]3CCCO3)c2n1`, in series [3], the AC50 was 0.0794 µM (inconclusive). For the compound `COc1cccc(Nc2ncc3nc(-c4ccc(Cl)cc4)c(=O)n(CCC#N)c3n2)c1`, the AC50 is 5.01 µM (inconclusive) in series [3] and 2 µM (inconclusive) in series [7].

As to `CC(=O)NCCNc1ncnc2ccc(-c3c(C)noc3C)cc12`, the half-maximal activity concentration (AC50) in series [7] is 25.1 µM (inconclusive). For `O=C(NC(=S)Nc1nc(-c2ccc(Br)cc2)cs1)c1cccnc1`, the AC50 in series [3] is 3.55 µM (inconclusive). On to `CCOc1ccc(-c2[nH]nc3c2C(c2ccc(O)cc2)C(C#N)=C(N)O3)cc1` (centres undefined), for which the AC50 in series [1] was 4.62 µM (active). The 50% effective concentration (EC50) in series [2] was 1.75 µM (active).

As for `COc1cccc(Cn2c(=O)cnc3cnc(Oc4ccccc4)nc32)c1`, in series [6] (read-out: AC50), the AC50 is 5.01 µM (inconclusive). Regarding `COC(=O)C/C=C\[C@@H](C)[C@@H](/C=N\O[C@@H](C)c1cn([C@H]2COC[C@H]2O)nn1)OC`, the AC50 entry in series [6] is recorded as “inconclusive”. Take `Nc1ccccc1S(=O)(=O)NC1=NCCCCC1`: the AC50 in series [1] is > 380 µM (inactive). Moreover, the EC50 in series [2] was > 380 µM (inactive). In the case of `CC(C)C(O)(C(C)C)C(C)C`, the half-maximal activity concentration (AC50) entry in series [6] is “inconclusive”. Take `O=c1cc(N2CCC(Cc3ccccc3)CC2)[nH]c(=O)n1C1CCCCC1`: the AC50 in series [7] was 3.55 µM (inconclusive). As to `C[C@](N)(C(=O)O)c1ccc(-c2nnn[nH]2)cc1`, the AC50 in series [3] is 39.8 µM (inconclusive); in series [6] (read-out: AC50) it was 7.94 µM (inconclusive).

For `Cc1ccc(OCC(=O)NNC(=O)c2cccnc2)cc1`, the AC50 was 25.1 µM (inconclusive) in series [7] and 3.16 µM (inconclusive) in series [6] (read-out: AC50). In the case of `SC1=NCCC12C(S)=Nc1ccccc12` (centres undefined), in series [1], the AC50 is > 380 µM (inactive). In series [2], the EC50 is > 380 µM (inactive).

As for `C#CCCCO/N=C1/C[C@@H](O)[C@@H](O)[C@@H]2[C@@H]3C(=O)N(CCC(=O)OCC)C(=O)[C@H]3CC[C@H]12`, the AC50 in series [7] was 5.01 µM (inconclusive). Turning to `COC(=O)COc1ccsc1C(=O)OC`, the AC50 in series [3] was 28.2 µM (inconclusive).

`Cc1noc(C)c1C(=O)N1CCC2(CCCN(c3ccccn3)C2)CC1`: in series [7], the AC50 was 20 µM (inconclusive). In the case of `O=C1[C@H]2O[C@@H]2[C@@H](O)[C@H]2[C@H]1CCn1c(=O)n(Cc3cc4c(cc3Cl)OCO4)c(=O)n12`, in series [7], the AC50 is 3.16 µM (inconclusive). With `C[C@@H](C(=O)Nc1ccc2ccccc2c1)[C@@H]1C[C@@]1(C)[C@@H](NC(=O)c1cnccn1)c1ccccc1`, the AC50 in series [3] was 12.6 µM (inconclusive). On to `COc1ccc(Oc2ncc3ncc(=O)n(C)c3n2)cc1`, for which the results for the AC50 in series [7] and in series [6] (read-out: AC50) were 25.1 µM (inconclusive) and 31.6 µM (inconclusive), respectively. `N#Cc1ncc(-c2ccc3c(c2)OCCOCCOCCOCCO3)nc1C#N`: the concentration for a half-maximal effect (EC50) in series [2] is 8.97 µM (active). As for `CC1=NNC(=O)C1Oc1ccccc1` (centres undefined), the AC50 in series [1] was 0.737 µM (active). The EC50 in series [2] is 0.57 µM (active).

For the compound `O=C(O)COc1ccc(/C=C2/SC(=S)N(Cc3ccccc3)C2=O)cc1`, in series [1], the AC50 was 13.7 µM (active). In series [2], the EC50 is 8.33 µM (active).

`COCCNc1nc(-c2cccc(NS(C)(=O)=O)c2)nc2ccccc12`: the AC50 in series [6] (read-out: AC50) is 39.8 µM (inconclusive).

As to `CC(C)(C)n1nc2c(c1NC(=O)c1ccc(S(=O)(=O)N3CCCCC3)cc1)C[S+]([O-])C2` (centres undefined), the AC50 in series [7] is 14.1 µM (inconclusive); in series [6] (read-out: AC50) it was 25.1 µM (inconclusive). As for `COc1ccc(CC(=O)O/N=C(\N)Cc2ccc(OC)cc2)cc1`, the AC50 in series [6] (read-out: AC50) was 14.1 µM (inconclusive). On the same count and under the same terms, next, `OC[C@@H]1O[C@@H](n2cnc3c(NC4CCCCC4)ncnc32)[C@@H](O)[C@H]1O`: 0.0251 µM (inconclusive).
